According to patent US20210198277A1, “AMINE-SUBSTITUTED ARYL OR HETEROARYL COMPOUNDS” (Epizyme, Inc., priority 2016, published 2021):
Like-named read-outs stand apart in the source and are kept apart here.

Key:
[1] = target: T1, EHMT1 (Homo sapiens, UniProt Q9H9B1); test: EHMT1 enzyme assay on peptide substrate (EHMT1 PEP); type: biochemical
T1 sequence (Q9H9B1 1-1298): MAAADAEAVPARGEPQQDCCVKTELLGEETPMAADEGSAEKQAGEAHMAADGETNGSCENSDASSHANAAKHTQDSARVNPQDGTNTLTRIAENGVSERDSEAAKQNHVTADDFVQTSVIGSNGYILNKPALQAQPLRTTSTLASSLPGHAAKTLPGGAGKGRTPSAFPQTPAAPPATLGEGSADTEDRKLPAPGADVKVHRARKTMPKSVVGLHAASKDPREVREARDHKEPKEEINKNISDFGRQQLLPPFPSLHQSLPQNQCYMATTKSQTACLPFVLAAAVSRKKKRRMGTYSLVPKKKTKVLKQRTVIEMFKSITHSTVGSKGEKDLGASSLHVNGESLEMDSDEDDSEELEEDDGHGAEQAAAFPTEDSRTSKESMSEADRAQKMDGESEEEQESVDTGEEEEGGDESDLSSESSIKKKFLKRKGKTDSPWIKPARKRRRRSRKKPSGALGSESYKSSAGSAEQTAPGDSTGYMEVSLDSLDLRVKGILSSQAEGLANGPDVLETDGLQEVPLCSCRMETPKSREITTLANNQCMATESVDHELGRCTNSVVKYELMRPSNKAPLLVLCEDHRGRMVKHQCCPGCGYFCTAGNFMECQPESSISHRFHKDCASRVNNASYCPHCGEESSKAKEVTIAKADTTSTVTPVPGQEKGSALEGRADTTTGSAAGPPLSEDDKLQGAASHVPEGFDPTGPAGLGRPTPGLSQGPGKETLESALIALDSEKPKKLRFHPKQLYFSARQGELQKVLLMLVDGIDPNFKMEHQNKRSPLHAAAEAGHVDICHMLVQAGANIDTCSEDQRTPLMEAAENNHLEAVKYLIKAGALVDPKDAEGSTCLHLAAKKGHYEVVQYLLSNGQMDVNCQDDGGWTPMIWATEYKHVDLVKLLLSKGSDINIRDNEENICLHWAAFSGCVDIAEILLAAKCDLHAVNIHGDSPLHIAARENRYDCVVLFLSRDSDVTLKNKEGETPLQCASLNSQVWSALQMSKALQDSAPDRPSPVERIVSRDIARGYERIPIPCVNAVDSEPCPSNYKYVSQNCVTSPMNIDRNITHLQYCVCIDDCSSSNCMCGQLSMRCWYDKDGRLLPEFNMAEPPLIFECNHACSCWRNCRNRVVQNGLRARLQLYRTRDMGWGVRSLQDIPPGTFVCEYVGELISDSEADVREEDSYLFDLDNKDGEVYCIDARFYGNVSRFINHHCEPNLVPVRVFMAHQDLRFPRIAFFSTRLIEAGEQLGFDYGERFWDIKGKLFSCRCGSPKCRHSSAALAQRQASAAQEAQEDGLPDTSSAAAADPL

[2] = target: T2, human EHMT2 913-1193 (Homo sapiens, UniProt Q96KQ7); test: EHMT2 enzyme assay on histone peptide substrate (EHMT2 PEP); type: biochemical
T2 construct: recombinant purified human EHMT2 913-1193, Viva; purchased Viva
T2 sequence (Q96KQ7 913-1193): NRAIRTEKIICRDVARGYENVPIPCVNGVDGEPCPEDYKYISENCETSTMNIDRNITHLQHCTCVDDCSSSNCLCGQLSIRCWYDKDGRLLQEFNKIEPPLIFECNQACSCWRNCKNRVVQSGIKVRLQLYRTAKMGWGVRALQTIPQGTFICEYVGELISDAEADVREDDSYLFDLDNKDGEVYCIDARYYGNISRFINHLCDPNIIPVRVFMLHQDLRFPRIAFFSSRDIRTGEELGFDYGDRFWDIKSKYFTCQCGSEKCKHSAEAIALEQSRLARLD
Description: Recombinant purified human EHMT2 913-1193 (55 μM) synthesized by Viva was used for all experiments. Biotinylated histone peptides were synthesized by Biopeptide and HPLC-purified to >95% purity. Streptavidin Flashplates and seals were purchased from PerkinElmer and 384 Well V-bottom Polypropylene Plates were from Greiner. ^3H-labeled S-adenosylmethionine (^3H-SAM) was obtained from American Radiolabeled Chemicals with a specific activity of 80 Ci/mmol. Unlabeled SAM and S-adenosylhomocysteine (SAH) were obtained from American Radiolabeled Chemicals and Sigma-Aldrich respectively. Flashplates were washed in a Biotek ELx-405 with 0.1% Tween. 384-well Flashplates and 96-well filter binding plates were read on a TopCount microplate reader (PerkinElmer). Compound serial dilutions were performed on a Freedom EVO (Tecan) and spotted into assay plates using a Thermo Scientific Matrix PlateMate (Thermo Scientific). Reagent cocktails were added by Multidrop Combi (Thermo Scientific).
General Procedure for EHMT2 Enzyme Assay on Histone Peptide Substrate.
10-point curves of test compounds were made on a Freedom EVO (Tecan) using serial 3-fold dilutions in DMSO, beginning at 2.5 mM (final top concentration of compound was 50 μM and the DMSO was 2%). A 1 μL aliquot of the inhibitor dilution series was spotted in a polypropylene 384-well V-bottom plate (Greiner) using a Thermo Scientific Matrix PlateMate (Thermo Scientific). […] Compounds were incubated for 30 minutes with 40 μL per well of 0.031 nM EHMT2 (recombinant purified human EHMT2 913-1193, Viva) in 1× assay buffer (20 mM Bicine [pH 7.5], 0.002% Tween 20, 0.005% Bovine Skin Gelatin and 1 mM TCEP). […] Reactions were incubated for 60 minutes at room temperature and quenched with 10 μL per well of 400 μM unlabeled SAM, then transferred to a 384-well streptavidin Flashplate (PerkinElmer) and washed in a Biotek ELx-405 well washer with 0.1% Tween after 60 minutes. 384-well Flashplates were read on a TopCount microplate reader (PerkinElmer).

[3] = Table II, read-out: EHMT1 PEP (IC50 μM)
[4] = Table II, read-out: EHMT2 PEP (IC50 μM)
[5] = Table VII, read-out: EHMT1 PEP IC50
[6] = Table VII, read-out: EHMT2 PEP IC50

COc1ccc(Nc2nccc(CNC3CCN(C(C)=O)CC3)n2)cc1OCCCN1CCCC1 [Compound 106]
IC50 [1, 3]: 0.1 to 1 µM | IC50 [2, 4]: 1 to 10 µM

CCCCNc1nc(C)cc(NCC2CCNCC2)n1 [Compound 86]
IC50 [1, 3]: 1 to 10 µM | IC50 [2, 4]: 1 to 10 µM

COc1ccc(Nc2nccc(CNC3CCOCC3)n2)cc1OCCCN1CCCC1 [Compound 107]
IC50 [1, 3]: > 10 µM | IC50 [2, 4]: > 10 µM

COc1ccc(Nc2cc(NCC3CCNCC3)ncn2)cc1OCCCN1CCCC1 [Compound 108]
IC50 [1, 3]: 1 to 10 µM | IC50 [2, 4]: 1 to 10 µM

CCCCNc1ncc(-c2ccccc2)c(N)n1 [Compound 82]
IC50 [1, 3]: > 10 µM | IC50 [2, 4]: > 10 µM

CCCCNc1ccnc(NCCCN)n1 [Compound 77]
IC50 [1, 3]: > 10 µM | IC50 [2, 4]: > 10 µM

CCCCNc1nccc(NCC2CCCCC2)n1 [Compound 61]
IC50 [1, 3]: > 10 µM | IC50 [2, 4]: > 10 µM

COc1ccc(Nc2nccc(NCC3CCN(C(C)=O)CC3)n2)cc1OCCCN1CCCC1=O [Compound 119]
IC50 [1, 3]: > 10 µM | IC50 [2, 4]: > 10 µM

O=C(NCCNc1ccnc(NCC2CCNCC2)n1)c1cn(C2CC2)nn1 [Compound 93]
IC50 [1, 3]: > 10 µM | IC50 [2, 4]: > 10 µM

O=C(NCCNc1ccnc(NCC2CCNCC2)n1)c1ccc2c(c1)OC(F)(F)O2 [Compound 92]
IC50 [1, 3]: > 10 µM | IC50 [2, 4]: > 10 µM

CCCCNc1ccnc(NCCCN(C)C)n1 [Compound 78]
IC50 [1, 3]: > 10 µM | IC50 [2, 4]: > 10 µM

CCCCNc1nccc(NCC2CCOC2)n1 (centres unmarked) [Compound 62]
IC50 [1, 3]: > 10 µM | IC50 [2, 4]: > 10 µM

COc1ccc(Nc2nccc(CNC3CCN(C)CC3)n2)cc1OCCCN1CCCC1 [Compound 111]
IC50 [1, 3]: > 10 µM | IC50 [2, 4]: > 10 µM

O=C(NCCNc1ccnc(NCC2CCNCC2)n1)c1ccc2[nH]c(=O)oc2c1 [Compound 95]
IC50 [1, 3]: > 10 µM | IC50 [2, 4]: > 10 µM

CC(=O)N1CCC(CNc2ccnc(Nc3cccc(NC(=O)c4ccc5c(c4)CC(=O)N5)c3)n2)CC1 [Compound 115]
IC50 [1, 3]: > 10 µM | IC50 [2, 4]: > 10 µM

CNc1ccnc(Nc2cccc(OCC(O)CN3CCCC3)c2)n1 (centres unmarked) [Compound 212]
IC50 [1, 3]: 1 to 10 µM | IC50 [2, 4]: 1 to 10 µM

COc1ccc(Nc2cccn3ncnc23)cc1OCCCN1CCCC1 [Compound 201]
IC50 [1, 3]: > 10 µM | IC50 [2, 4]: > 10 µM

COc1ccc(Nc2nccc(CNC3CCNCC3)n2)cc1OCCCN1CCCC1 [Compound 104]
IC50 [1, 3]: > 10 µM | IC50 [2, 4]: > 10 µM

CCCCNc1nccc(NCCCN(C)C)n1 [Compound 76]
IC50 [1, 3]: > 10 µM | IC50 [2, 4]: > 10 µM

CCCCNc1ncc(C)c(NCC2CCNCC2)n1 [Compound 91]
IC50 [1, 3]: 1 to 10 µM | IC50 [2, 4]: > 10 µM

CCCCNc1nc(NCC2CCNCC2)cc(C(N)=O)n1 [Compound 85]
IC50 [1, 3]: > 10 µM | IC50 [2, 4]: > 10 µM

CCCCNc1ccnc(NCCCC)n1 [Compound 72]
IC50 [1, 3]: > 10 µM | IC50 [2, 4]: > 10 µM

CC(=O)N1CCC(CNc2ccnc(Nc3cccc(NC(=O)c4cn(C5CC5)nn4)c3)n2)CC1 [Compound 123]
IC50 [1, 3]: > 10 µM | IC50 [2, 4]: > 10 µM

COc1ccc(Nc2nccc(N3CCCC3)n2)cc1OCCCN1CCCC1 [Compound 124]
IC50 [1, 3]: 1 to 10 µM | IC50 [2, 4]: 1 to 10 µM

COCCNc1nccc(N)n1 [Compound 75]
IC50 [1, 3]: > 10 µM | IC50 [2, 4]: > 10 µM

CCCCNc1nccc(NCCCN)n1 [Compound 79]
IC50 [1, 3]: 1 to 10 µM | IC50 [2, 4]: > 10 µM

CCCCNc1nccc(NC2CCCCC2)n1 [Compound 58]
IC50 [1, 3]: > 10 µM | IC50 [2, 4]: > 10 µM

COc1ccc(Nc2nccc(NCC3CCN(C(C)=O)CC3)n2)cc1OCCCN1CC[C@H](F)C1 [Compound 117]
IC50 [1, 3]: 1 to 10 µM | IC50 [2, 4]: 1 to 10 µM

CCCCNc1ncc(C#N)c(NCC2CCNCC2)n1 [Compound 83]
IC50 [1, 3]: > 10 µM | IC50 [2, 4]: > 10 µM

CCCCNc1nccc(C(N)=O)n1 [Compound 80]
IC50 [1, 3]: > 10 µM | IC50 [2, 4]: > 10 µM

Cc1cc(N(C)C)nc(Nc2ccc(NC(=O)Nc3ccc(Cl)cc3)cc2)n1 [Compound 1117]
IC50 [1, 5]: > 10 µM | IC50 [2, 6]: 1 to 10 µM

CCCCNc1nc(C#N)cc(NCC2CCNCC2)n1 [Compound 94]
IC50 [1, 3]: 1 to 10 µM | IC50 [2, 4]: 1 to 10 µM

O=C1Cc2cc(C(=O)NCCNc3ccnc(NCC4CCNCC4)n3)ccc2N1 [Compound 96]
IC50 [1, 3]: 1 to 10 µM | IC50 [2, 4]: 1 to 10 µM

CCc1ccccc1NC(=O)Nc1ccc(Nc2nc(C)cc(N3CCCC3)n2)cc1 [Compound 1115]
IC50 [1, 5]: 1 to 10 µM | IC50 [2, 6]: 1 to 10 µM

COc1ccc(Nc2nccc(CN(C)C3CCOCC3)n2)cc1OCCCN1CCCC1 [Compound 112]
IC50 [1, 3]: > 10 µM | IC50 [2, 4]: > 10 µM

COc1ccc(Nc2nccc(NCC3CCN(C(C)=O)CC3)n2)cc1NC(=O)CCN1CCCC1 [Compound 121]
IC50 [1, 3]: 1 to 10 µM | IC50 [2, 4]: 1 to 10 µM

COc1ccc(Nc2nccc(NCC3CCNCC3)n2)cc1OCCCC1CCCC1 [Compound 109]
IC50 [1, 3]: 1 to 10 µM | IC50 [2, 4]: 1 to 10 µM

CN1CCC(CNc2nccc(NCCNC(=O)c3ccc4c(c3)CC(=O)N4)n2)CC1 [Compound 97]
IC50 [1, 3]: 1 to 10 µM | IC50 [2, 4]: 1 to 10 µM

CCCCNc1nccc(NC2CCOCC2)n1 [Compound 63]
IC50 [1, 3]: > 10 µM | IC50 [2, 4]: > 10 µM

CCCCNc1ncc(C(N)=O)c(NCC2CCNCC2)n1 [Compound 89]
IC50 [1, 3]: > 10 µM | IC50 [2, 4]: > 10 µM
